Measured values taken from patent publication US20220143183A1, “PHOTOSWITCHABLE PROTACS AND SYNTHESIS AND USES THEREOF” (New York University, priority 2019, published 2022).

How the values were obtained:
BRD2-4 = assay: Western blot of BET proteins in RS4;11 cells, results stated for BRD2-4 together; format: cell-based, human
Procedure: (§1) Next, the light dependence of targeted protein degradation was analyzed in RS4;11 cells by western blot analysis of the BET proteins BRD2-4 (FIG. 5). To this end, cells were treated with increasing concentrations of our lead compound, PHOTAC-I-3, for 4 h and pulse-irradiated with 390 nm light (100 ms every 10 s). […] The cereblon-dependent degradation was confirmed by a competition experiment (FIG. 5E), and further validated by siRNA knockdown of cereblon (FIG. 13).
The slight effect on c-MYC can be explained by inhibition of BRD4 with the (+)-JQ1 derivative PHOTAC-I-3 in the absence of targeted degradation.
(§2) Cells were incubated with different concentrations of selected compounds. They were placed in a light-proof box and preirradiated for 1 min at 390 nm followed by 100 ms pulses every 10 s or were kept in the dark for 4 h.
Cultured cells were collected by centrifugation and washed twice with cold PBS. The supernatant was removed and each cell pellet was lysed in 100 μL NP40-Cell-Lysis Buffer+0.1% SDS+1 mM PMSF+ protease inhibitor cocktail (Sigma Aldrich) for 30 min on ice, with vortexing at 10-minute intervals. Afterwards, cells were centrifuged at 13.000 rpm for 10 min at 4° C. Samples were stored on ice and the supernatant was collected for protein concentration determination using a Thermofisher Scientific Pierce™ Coomassie Plus (Bradford) Assay Kit. […]

BRD3 = molecular target: T1, BRD3 (Homo sapiens, UniProt Q15059); assay: Western blot of BRD3 levels in RS4;11 cells; format: cell-based
T1 construct: endogenous in cells; host or cells: RS4;11 (ATCC CRL-1873)
Procedure: as §1, §2
(§3) Cultured cells were collected by centrifugation and washed twice with cold PBS. The supernatant was removed and each cell pellet was lysed in 100 μL NP40-Cell-Lysis Buffer+0.1% SDS+1 mM PMSF+ protease inhibitor cocktail (Sigma Aldrich) for 30 min on ice, with vortexing at 10-minute intervals. Afterwards, cells were centrifuged at 13.000 rpm for 10 min at 4° C. Samples were stored on ice and the supernatant was collected for protein concentration determination using a Thermofisher Scientific Pierce™ Coomassie Plus (Bradford) Assay Kit.
The samples were diluted each with 5 μL Laemmli sample buffer Invitrogen (NuPAGE LDS Sample Buffer 4×) and 1 μL DTT, heated at 95° C. for 5 min. […]

BRD4 = BRD4 (Homo sapiens, UniProt O60885); assay: Western blot of BRD4 levels in RS4;11 cells; format: cell-based; set-up: endogenous in cells; host or cells: RS4;11 (ATCC CRL-1873)
Procedure: as §1
Western Immunoblot Analysis. Rabbit monoclonal Antibodies for BRD4 (#13440), β-Actin (#4970) c-Myc (#5605) and Anti-rabbit IgG, HRP-linked Antibody (#7074) were purchased from Cell Signalling Technologies.
as §2, §3
The samples were diluted each with 5 μL Laemmli sample buffer Invitrogen (NuPAGE LDS Sample Buffer 4×) and 1 μL DTT, heated at 95° C. for 5 min. Respectively 20 μL of each sample was loaded in a lane of a Bio-Rad Mini-PROTEAN TGX precast Gel, 4-20%, used with tris-glycine SDS Running buffer. The gel ran 5 min at 50 V, then 35 min at 140 V. Next step was the electrotransfer to a polyvinylidene difluoride (PVDF) membrane which was carried out using an iBlot™ 2 Dry Blotting System set to the standard program. After the transfer, the membrane was washed with 25 mL TB ST for 5 min and subsequent incubated in 25 mL of blocking buffer (1×TBST+5% nonfat dry milk, Blotto, Santa Cruz Biotechnology) for 1 h at room temperature. The membrane was washed three times for 5 min each with 15 mL of TBST and incubated in a 10 mL antibody dilution buffer with gentle agitation at 4° C. overnight (Actin: 1:1000; c-MYC: 1:1000; BRD4: 1:1000). The next day, the membrane was washed again three times for 5 min each with 15 mL TBST, followed by incubation with anti-rabbit, HRP-linked antibody (1:2000) in 10 mL blocking buffer with gentle agitation for 1 h at room temperature. Afterwards, the membrane was washed three times for 5 min each with 15 mL TBST and then incubated in 10 mL of Clarity Max Western ECL Substrate solution for 5 min. Chemoluminescence imaging was performed on a Bio-Rad ChemiDoc™ Imaging System.
LED illumination. For illumination of the cells we used the cell disco system as previously described in the literature^[25]. 390 nm 5 mm LEDs were purchased from Roithner Lasertechnik. Cells were preirradiated for 1 min at 390 nm, followed by 100 ms pulses every 10 s in 96- or 6-well plates.

PARP-1 = assay: Immunoblot of PARP-1 cleavage in RS4;11 cells; format: cell-based, human; conditions: 1 μM, sustained 390 nm pulse irradiation
Procedure: FIG. 5 depicts optical control of BRD2-4 levels. A) Immunoblot analysis after treatment of RS4;11 cells with PHOTAC-I-3 for 4 h at different concentrations. Cells were either irradiated with 100 ms pulses of 390 nm light every 10 s (left) or kept in the dark (right). B) Time course of BRD2-4 degradation, c-MYC levels and PARP1 cleavage assayed by immunoblotting. RS4;11 cells were treated with PHOTAC-I-3 (1 μM) and collected at the indicated time points. PHOTAC-I-3 has no effect on BRD2-4 levels in the dark over several hours. […] D) Color-dosing: Wavelength dependence of BRD2/4 degradation promoted by 300 nM PHOTAC-I-3. E) Immunoblot analysis after treatment of RS4;11 cells with PHOTAC-I-3 and combinations with lenalidomide or (+)-JQ1 for 4 h to confirm a cereblon-based mechanism. Cells were either irradiated with 100 ms pulses of 390 nm light every 10 s (left) or kept in the dark (right). F) Optical degradation of BRD4 with the thalidomide derivative PHOTAC-I-10. Immunoblot analysis of RS4;11 cells after treatment with PHOTAC-I-10 for 4 h at different concentrations which were either irradiated with 100 ms pulses of 390 nm light every 10 s (left) or kept in the dark (right). […] The slight effect on c-MYC can be explained by inhibition of BRD4 with the (+)-JQ1 derivative PHOTAC-I-3 in the absence of targeted degradation.

T1 sequence (Q15059 whole entry): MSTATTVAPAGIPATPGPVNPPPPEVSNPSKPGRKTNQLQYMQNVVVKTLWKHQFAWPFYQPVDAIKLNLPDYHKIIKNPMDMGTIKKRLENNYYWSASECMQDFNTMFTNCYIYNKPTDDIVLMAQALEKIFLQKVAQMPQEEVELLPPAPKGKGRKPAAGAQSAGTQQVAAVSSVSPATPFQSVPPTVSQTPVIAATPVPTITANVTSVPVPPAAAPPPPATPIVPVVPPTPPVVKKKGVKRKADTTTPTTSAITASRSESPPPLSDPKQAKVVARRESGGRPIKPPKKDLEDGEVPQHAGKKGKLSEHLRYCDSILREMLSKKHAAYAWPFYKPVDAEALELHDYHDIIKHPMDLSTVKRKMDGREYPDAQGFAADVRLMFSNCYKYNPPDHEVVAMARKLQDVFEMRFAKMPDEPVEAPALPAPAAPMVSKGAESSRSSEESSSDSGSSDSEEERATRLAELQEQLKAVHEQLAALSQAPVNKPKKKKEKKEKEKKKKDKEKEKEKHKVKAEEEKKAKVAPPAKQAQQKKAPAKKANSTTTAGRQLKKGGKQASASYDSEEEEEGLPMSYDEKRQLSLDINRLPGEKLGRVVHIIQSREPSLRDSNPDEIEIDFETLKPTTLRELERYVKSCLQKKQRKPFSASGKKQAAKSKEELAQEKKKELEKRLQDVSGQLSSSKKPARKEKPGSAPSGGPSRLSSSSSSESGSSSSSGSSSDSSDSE

## COc1cc(/N=N/c2cccc3c2CN(C2CCC(=O)NC2=O)C3=O)cc(OC)c1OCC(=O)NCCCCNC(=O)C[C@@H]1N=C(c2ccc(Cl)cc2)c2c(sc(C)c2C)-n2c(C)nnc21 (stereo partly drawn) [PHOTAC-I-3, 2-((S)-4-(4-chlorophenyl)-2,3,9-trimethyl-6H-thieno[3,2-f][1,2,4]triazolo[4,3-a][1,4]diazepin-6-yl)-N-(4-(2-(4-((E)-(2-(2,6-dioxopiperidin-3-yl)-1-oxoisoindolin-4-yl)diazenyl)-2,6-dimethoxyphenoxy)acetamido)butyl)acetamide]
BRD2-4; 1 μM together with MLN4924 (2.5 μM), 390 nm irradiation
  BRD2-4 levels with CRL inhibitor MLN4924: rescued BRD2-4 levels
BRD2-4; 1 μM, in the dark
  BRD levels in the dark, time course: no effect on BRD levels
BRD3; 1 μM, 390 nm pulse irradiation
  exposure time after which BRD3 is largely absent: 1.5 h
BRD3; 4 h, irradiated with violet light (390 nm)
  BRD3 levels: significantly reduced
BRD4; 1 μM, 390 nm pulse irradiation, compared with BRD2 and BRD3
  time dependence of BRD4 degradation: degraded more slowly
BRD4; 10 μM, 4 h, 390 nm
  BRD4 degradation at high concentration (hook effect): less degradation
BRD4; 4 h, 390 nm pulses (100 ms every 10 s)
  BRD4 levels: pronounced decrease of BRD4 levels
BRD4; activation for 1 min, 300 nM
  BRD4 degradation in the dark after brief activation: Persistent degradation of BRD4
PARP-1
  PARP-1 cleavage (indicator of apoptosis): increasing cleavage of PARP-1
